Results published in the NIST ThermoML archive (doi:10.1021/je030147g).

What was measured:
[1] = xn = mol fraction of the nth substance listed; conditions: 101.33 kPa, Liquid
[2] = refractive index (Na D-line) (dimensionless); xn = mol fraction of the nth substance listed; conditions: 101.33 kPa, Liquid

c1ccncc1 [pyridine] + CCCCN(CCCC)CCCC
x2 = 0
Conditions | mass density, 298.15 K [kg/m3] | mass density, 303.15 K [kg/m3] | mass density, 308.15 K [kg/m3] | refractive index, 298.15 K | refractive index, 303.15 K | refractive index, 308.15 K | speed of sound, 298.15 K [m/s] | viscosity, 298.15 K [mPa·s] | viscosity, 303.15 K [mPa·s] | viscosity, 308.15 K [mPa·s]
[1] | 979 | 973.7 | 968.6 | – | – | – | 1412 | 0.885 | 0.82 | 0.766
[2] | – | – | – | 1.5062 | 1.5025 | 1.5016 | – | – | – | –

ClC(Cl)=C(Cl)Cl [tetrachloroethene] + CCCCN(CCCC)CCCC
x2 = 0
Conditions | mass density, 298.15 K [kg/m3] | mass density, 303.15 K [kg/m3] | mass density, 308.15 K [kg/m3] | refractive index, 298.15 K | refractive index, 303.15 K | refractive index, 308.15 K | speed of sound, 298.15 K [m/s] | viscosity, 298.15 K [mPa·s] | viscosity, 303.15 K [mPa·s] | viscosity, 308.15 K [mPa·s]
[1] | 1616 | 1607.5 | 1597.5 | – | – | – | 1033 | 0.875 | 0.831 | 0.791
[2] | – | – | – | 1.5036 | 1.5005 | 1.4978 | – | – | – | –

CCCCCCCCCCCCCC [tetradecane] + CCCCN(CCCC)CCCC
x2 = 0
Conditions | mass density, 298.15 K [kg/m3] | mass density, 303.15 K [kg/m3] | mass density, 308.15 K [kg/m3] | refractive index, 298.15 K | refractive index, 303.15 K | refractive index, 308.15 K | speed of sound, 298.15 K [m/s] | viscosity, 298.15 K [mPa·s] | viscosity, 303.15 K [mPa·s] | viscosity, 308.15 K [mPa·s]
[1] | 760.7 | 757 | 753.3 | – | – | – | 1315 | 2.032 | 1.827 | 1.653
[2] | – | – | – | 1.4282 | 1.426 | 1.4236 | – | – | – | –

C1CCOC1 [tetrahydrofuran] + CCCCN(CCCC)CCCC
x2 = 0
Conditions | mass density, 298.15 K [kg/m3] | mass density, 303.15 K [kg/m3] | mass density, 308.15 K [kg/m3] | refractive index, 298.15 K | refractive index, 303.15 K | refractive index, 308.15 K | speed of sound, 298.15 K [m/s] | viscosity, 298.15 K [mPa·s] | viscosity, 303.15 K [mPa·s] | viscosity, 308.15 K [mPa·s]
[1] | 882.9 | 877.5 | 871.2 | – | – | – | 1288 | 0.485 | 0.46 | 0.439
[2] | – | – | – | 1.4049 | 1.4026 | 1.3998 | – | – | – | –

CCCCN(CCCC)CCCC [tributylamine] + C1CCOC1
Conditions | mass density, [1] [kg/m3] | refractive index, [2] | speed of sound, [1] [m/s] | viscosity, [1] [mPa·s]
298.15 K, x1 = 0.1033 | 853.3 | 1.412 | 1283 | 0.571
298.15 K, x1 = 0.2033 | 833.4 | 1.415 | 1278 | 0.656
298.15 K, x1 = 0.3041 | 818.9 | 1.418 | 1274 | 0.741
298.15 K, x1 = 0.4012 | 808.1 | 1.42 | 1271 | 0.818
298.15 K, x1 = 0.5024 | 799.2 | 1.4229 | 1269 | 0.897
298.15 K, x1 = 0.5974 | 792.5 | 1.4235 | 1267 | 0.967
298.15 K, x1 = 0.6814 | 787.5 | 1.4249 | 1266 | 1.028
298.15 K, x1 = 0.7898 | 782.1 | 1.4265 | 1264 | 1.1
298.15 K, x1 = 0.8941 | 777.8 | 1.4269 | 1263 | 1.167
298.15 K, x1 = 1 | 773.9 | 1.4276 | 1262 | 1.239
303.15 K, x1 = 0.1033 | 847.9 | 1.4094 | – | 0.539
303.15 K, x1 = 0.2033 | 828.4 | 1.4141 | – | 0.618
303.15 K, x1 = 0.3041 | 814.2 | 1.4155 | – | 0.693
303.15 K, x1 = 0.4012 | 803.5 | 1.4178 | – | 0.763
303.15 K, x1 = 0.5024 | 794.7 | 1.4203 | – | 0.833
303.15 K, x1 = 0.5974 | 788.2 | 1.4211 | – | 0.896
303.15 K, x1 = 0.6814 | 783.1 | 1.4226 | – | 0.949
303.15 K, x1 = 0.7898 | 777.9 | 1.4238 | – | 1.014
303.15 K, x1 = 0.8941 | 773.6 | 1.4246 | – | 1.071
303.15 K, x1 = 1 | 769.2 | 1.4254 | – | 1.124
308.15 K, x1 = 0.1033 | 842.5 | 1.4068 | – | 0.509
308.15 K, x1 = 0.2033 | 823.5 | – | – | 0.581
308.15 K, x1 = 0.3041 | 809.3 | 1.413 | – | 0.646
308.15 K, x1 = 0.4012 | 798.9 | 1.4156 | – | 0.708
308.15 K, x1 = 0.5024 | 790.3 | 1.4178 | – | 0.769
308.15 K, x1 = 0.5974 | 783.8 | 1.4188 | – | 0.825
308.15 K, x1 = 0.6814 | 778.9 | 1.4203 | – | 0.871
308.15 K, x1 = 0.7898 | 773.6 | 1.4212 | – | 0.928
308.15 K, x1 = 0.8941 | 769.4 | 1.4224 | – | 0.976
308.15 K, x1 = 1 | 765.7 | 1.4228 | – | 1.02

CCCCN(CCCC)CCCC [tributylamine] + CCCCCCCCCCCCCC
Conditions | mass density, 298.15 K [kg/m3] | mass density, 303.15 K [kg/m3] | mass density, 308.15 K [kg/m3] | refractive index, 298.15 K | refractive index, 303.15 K | refractive index, 308.15 K | speed of sound, 298.15 K [m/s] | viscosity, 298.15 K [mPa·s] | viscosity, 303.15 K [mPa·s] | viscosity, 308.15 K [mPa·s]
[1], x1 = 0.1081 | 761.9 | 758.1 | 754.4 | – | – | – | 1303 | 1.93 | 1.75 | 1.57
[1], x1 = 0.2058 | 762.9 | 759.2 | 755.5 | – | – | – | 1292 | 1.842 | 1.671 | 1.499
[1], x1 = 0.2802 | 763.8 | 760 | 756.3 | – | – | – | 1287 | 1.774 | 1.612 | 1.45
[1], x1 = 0.4095 | 765.3 | 761.5 | 757.8 | – | – | – | 1283 | 1.668 | 1.518 | 1.368
[1], x1 = 0.5112 | 766.6 | 762.9 | 759.1 | – | – | – | 1279 | 1.585 | 1.448 | 1.31
[1], x1 = 0.6101 | 767.9 | 764.2 | 760.5 | – | – | – | 1275 | 1.511 | 1.386 | 1.261
[1], x1 = 0.7051 | 769.3 | 765.5 | 761.9 | – | – | – | 1272 | 1.441 | 1.329 | 1.216
[1], x1 = 0.7999 | 770.9 | 767 | 763.1 | – | – | – | 1270 | 1.375 | 1.274 | 1.173
[1], x1 = 0.8953 | 772.4 | 768.4 | 764.4 | – | – | – | 1267 | 1.309 | 1.222 | 1.135
[1], x1 = 1 | 773.9 | 769.2 | 765.7 | – | – | – | 1262 | 1.239 | 1.124 | 1.103
[2], x1 = 0.1081 | – | – | – | 1.4283 | 1.4258 | 1.4234 | – | – | – | –
[2], x1 = 0.2058 | – | – | – | 1.4282 | 1.4257 | 1.4234 | – | – | – | –
[2], x1 = 0.2802 | – | – | – | 1.428 | 1.4256 | 1.4232 | – | – | – | –
[2], x1 = 0.4095 | – | – | – | 1.4278 | 1.4254 | 1.4231 | – | – | – | –
[2], x1 = 0.5112 | – | – | – | 1.4278 | 1.4254 | 1.423 | – | – | – | –
[2], x1 = 0.6101 | – | – | – | 1.4278 | 1.4254 | 1.423 | – | – | – | –
[2], x1 = 0.7051 | – | – | – | 1.4279 | 1.4255 | 1.4231 | – | – | – | –
[2], x1 = 0.7999 | – | – | – | 1.4281 | 1.4256 | 1.4231 | – | – | – | –
[2], x1 = 0.8953 | – | – | – | 1.428 | 1.4255 | 1.4231 | – | – | – | –
[2], x1 = 1 | – | – | – | 1.4276 | 1.4255 | 1.4228 | – | – | – | –

CCCCN(CCCC)CCCC [tributylamine] + CCN(CC)CC
Conditions | mass density, 298.15 K [kg/m3] | mass density, 303.15 K [kg/m3] | mass density, 308.15 K [kg/m3] | refractive index, 298.15 K | refractive index, 303.15 K | refractive index, 308.15 K | speed of sound, 298.15 K [m/s] | viscosity, 298.15 K [mPa·s] | viscosity, 303.15 K [mPa·s] | viscosity, 308.15 K [mPa·s]
[1], x1 = 0.1072 | 732 | 727.3 | 722.8 | – | – | – | 1143 | 0.433 | 0.411 | 0.388
[1], x1 = 0.2039 | 739.2 | 734.6 | 730.2 | – | – | – | 1160 | 0.491 | 0.464 | 0.438
[1], x1 = 0.3083 | 745.9 | 741.4 | 737.1 | – | – | – | 1179 | 0.567 | 0.533 | 0.499
[1], x1 = 0.4066 | 751.5 | 747.2 | 742.9 | – | – | – | 1196 | 0.643 | 0.602 | 0.561
[1], x1 = 0.5029 | 756.4 | 752.2 | 747.9 | – | – | – | 1210 | 0.719 | 0.672 | 0.625
[1], x1 = 0.5905 | 760.2 | 756 | 751.8 | – | – | – | 1221 | 0.801 | 0.746 | 0.688
[1], x1 = 0.6928 | 763.7 | 759.5 | 755.4 | – | – | – | 1232 | 0.899 | 0.833 | 0.767
[1], x1 = 0.7914 | 767.1 | 763 | 758.9 | – | – | – | 1236 | 1.003 | 0.923 | 0.844
[1], x1 = 0.8942 | 770.6 | 766.5 | 762.4 | – | – | – | 1246 | 1.118 | 1.026 | 0.934
[1], x1 = 1 | 773.9 | 769.2 | 765.7 | – | – | – | 1262 | 1.239 | 1.123 | 1.028
[2], x1 = 0.1072 | – | – | – | 1.4052 | 1.4031 | 1.4012 | – | – | – | –
[2], x1 = 0.2039 | – | – | – | 1.4104 | 1.4079 | 1.4054 | – | – | – | –
[2], x1 = 0.3083 | – | – | – | 1.4131 | 1.4116 | 1.4102 | – | – | – | –
[2], x1 = 0.4066 | – | – | – | 1.4164 | 1.4144 | 1.4122 | – | – | – | –
[2], x1 = 0.5029 | – | – | – | 1.4208 | 1.4178 | 1.4148 | – | – | – | –
[2], x1 = 0.5905 | – | – | – | 1.4218 | 1.4194 | 1.4169 | – | – | – | –
[2], x1 = 0.6928 | – | – | – | 1.4238 | 1.4213 | 1.4189 | – | – | – | –
[2], x1 = 0.7914 | – | – | – | 1.4256 | 1.423 | 1.4204 | – | – | – | –
[2], x1 = 0.8942 | – | – | – | 1.4265 | 1.4241 | 1.4217 | – | – | – | –
[2], x1 = 1 | – | – | – | 1.4276 | 1.4255 | 1.4228 | – | – | – | –
